Assay results from publication PMC5936909, “Identification of potent chromone embedded [1,2,3]-triazoles as novel anti-tubercular agents” (Royal Society Open Science, 2018).
Read-outs that look alike come from different tables or passages of the source.

Legend:
[1] = tested on: Mycobacterium tuberculosis H37Rv (ATCC27294); experiment: in vitro anti-tubercular activity, MABA assay; assay type: cell-based
[2] = tested on: RAW 264.7 cells; experiment: in vitro cytotoxicity, MTT assay; conditions: at 50 µg ml^−1, RAW 264.7 cells
[3] = Mycobacterium tuberculosis, M. tuberculosis H37Rv, MABA, lowest concentration with complete inhibition of growth, read-out: MIC
[4] = Mycobacterium tuberculosis, supplement page S72, standard drugs, read-out: MIC
[5] = M. tuberculosis H37Rv, MABA, lowest concentration with complete inhibition of growth
[6] = Mycobacterium tuberculosis, supplement page S73 correlation table, read-out: MIC

CC[C@@H](CO)NCCN[C@@H](CC)CO [ethambutol, reference compound]
MIC [1, 3]: 7.64 µg/mL
MIC [1, 4]: 7.64 µM

Cc1ccc(-c2cn(Cc3coc4ccccc4c3=O)nn2)cc1 [6b, 3-((4-(p-tolyl)-1H-1,2,3-triazol-1-yl)methyl)-4H-chromen-4-one]
MIC [1, 3]: 25 µg/mL
melting point: 170 to 172 °C
cytotoxicity (percentage inhibition of cells) [2]: 26.82%

COc1ccc(-c2cn(Cc3coc4ccccc4c3=O)nn2)c(C)c1 [6j, 3-((4-(4-methoxy-2-methylphenyl)-1H-1,2,3-triazol-1-yl)methyl)-4H-chromen-4-one]
MIC [1, 3]: 50 µg/mL
melting point: 172 to 173 °C
cytotoxicity (percentage inhibition of cells) [2]: 30.34%

CCc1ccc(-c2cn(Cc3coc4ccccc4c3=O)nn2)cc1 [6c, 3-((4-(4-ethylphenyl)-1H-1,2,3-triazol-1-yl)methyl)-4H-chromen-4-one]
MIC [1, 3]: 25 µg/mL
cytotoxicity (percentage inhibition of cells) [2]: 16.12%

O=c1c(Cn2cc(C3CCCCC3)nn2)coc2ccccc12 [6p, 3-((4-cyclohexyl-1H-1,2,3-triazol-1-yl)methyl)-4H-chromen-4-one]
MIC [1, 5]: 12.5 µg/mL
MIC [1, 6]: 12.5 µg/mL
melting point: 145 to 146 °C
cytotoxicity (percentage inhibition of cells) [2]: 20.12%

CCCCCOc1ccc(-c2cn(Cc3coc4ccccc4c3=O)nn2)cc1 [6h, 3-((4-(4-(pentyloxy)phenyl)-1H-1,2,3-triazol-1-yl)methyl)-4H-chromen-4-one]
MIC [1, 5]: 3.125 µg/mL
MIC [1, 6]: 3.12 µg/mL
melting point: 154 to 155 °C
cytotoxicity (percentage inhibition of cells) [2]: 18.68%

O=c1c(Cn2cc(C3CCCC3)nn2)coc2ccccc12 [6o, 3-((4-cyclopentyl-1H-1,2,3-triazol-1-yl)methyl)-4H-chromen-4-one]
MIC [1, 5]: 3.125 µg/mL
MIC [1, 6]: 3.12 µg/mL
melting point: 157 to 158 °C
cytotoxicity (percentage inhibition of cells) [2]: 18.42%

O=c1c(Cn2cc(CCCCCCCCCCCCCCCO)nn2)coc2ccccc12 [6s, 3-((4-(15-hydroxypentadecyl)-1H-1,2,3-triazol-1-yl)methyl)-4H-chromen-4-one]
MIC [1, 5]: 1.56 µg/mL
MIC [1, 6]: 1.56 µg/mL
times more active than the standard drug ethambutol ([1]; ratio of MIC values): 4.8 times
melting point: 123 to 124 °C
cytotoxicity (percentage inhibition of cells) [2]: 24.68%

CC(C)(C)c1ccc(-c2cn(Cc3coc4ccccc4c3=O)nn2)cc1 [6f, 3-((4-(4-(tert-butyl)phenyl)-1H-1,2,3-triazol-1-yl)methyl)-4H-chromen-4-one]
MIC [1, 5]: 3.125 µg/mL
MIC [1, 6]: 3.12 µg/mL
melting point: 218 to 219 °C
cytotoxicity (percentage inhibition of cells) [2]: 20.12%

O=c1c(Cn2cc(CC3CCCCC3)nn2)coc2ccccc12 [6q, 3-((4-(cyclohexylmethyl)-1H-1,2,3-triazol-1-yl)methyl)-4H-chromen-4-one]
MIC [1, 3]: 25 µg/mL
melting point: 133 to 134 °C
cytotoxicity (percentage inhibition of cells) [2]: 28.62%

O=c1c(Cn2cc(-c3cccc4ccccc34)nn2)coc2ccccc12 [6k, 3-((4-(naphthalen-1-yl)-1H-1,2,3-triazol-1-yl)methyl)-4H-chromen-4-one]
MIC [1, 3]: 50 µg/mL
melting point: 154 to 155 °C
cytotoxicity (percentage inhibition of cells) [2]: 26.12%

CCCCCc1ccc(-c2cn(Cc3coc4ccccc4c3=O)nn2)cc1 [6e, 3-((4-(4-pentylphenyl)-1H-1,2,3-triazol-1-yl)methyl)-4H-chromen-4-one]
MIC [1, 3]: 25 µg/mL
melting point: 147 to 148 °C
cytotoxicity (percentage inhibition of cells) [2]: 20.12%

CCCCc1cn(Cc2coc3ccccc3c2=O)nn1 [6m, 3-((4-butyl-1H-1,2,3-triazol-1-yl)methyl)-4H-chromen-4-one]
MIC [1, 5]: 6.25 µg/mL
MIC [1, 6]: 6.25 µg/mL
melting point: 87 to 88 °C
cytotoxicity (percentage inhibition of cells) [2]: 36.82%

2-((1H-1,2,3-triazol-1-yl)methyl)-4H-chromen-4-one [6t]
MIC [1, 5]: 50 µg/mL
cytotoxicity (percentage inhibition of cells) [2]: 30.12%

CO[C@H]1/C=C/O[C@@]2(C)Oc3c(C)c(O)c4c(O)c(c(/C=N/N5CCN(C)CC5)c(O)c4c3C2=O)NC(=O)/C(C)=C\C=C\[C@H](C)[C@H](O)[C@@H](C)[C@@H](O)[C@@H](C)[C@H](OC(C)=O)[C@@H]1C [Rifampicin, rifampicin, reference compound]
MIC [1, 3]: 0.24 µg/mL
MIC [1, 4]: 0.24 µM

3-((4-(4-propylphenyl)-1H-1,2,3-triazol-1-yl)methyl)-4H-chromen-4-one [6d]
MIC [1, 5]: 50 µg/mL
cytotoxicity (percentage inhibition of cells) [2]: 20.60%

O=c1c(Cn2cc(-c3ccccc3)nn2)coc2ccccc12 [6a, 3-((4-phenyl-1H-1,2,3-triazol-1-yl)methyl)-4H-chromen-4-one]
MIC [1, 3]: 25 µg/mL
melting point: 154 to 155 °C
cytotoxicity (percentage inhibition of cells) [2]: 12.86%

COc1ccc(-c2cn(Cc3coc4ccccc4c3=O)nn2)cc1 [6g, 3-((4-(4-methoxyphenyl)-1H-1,2,3-triazol-1-yl)methyl)-4H-chromen-4-one]
MIC [1, 5]: 6.25 µg/mL
MIC [1, 6]: 6.25 µg/mL
melting point: 170 to 171 °C
cytotoxicity (percentage inhibition of cells) [2]: 28.40%

Cc1cccc(-c2cn(Cc3coc4ccccc4c3=O)nn2)c1 [6i, 3-((4-(m-tolyl)-1H-1,2,3-triazol-1-yl)methyl)-4H-chromen-4-one]
MIC [1, 3]: 25 µg/mL
melting point: 124 to 125 °C
cytotoxicity (percentage inhibition of cells) [2]: 26.82%

O=c1c(Cn2cc(C3(O)c4ccccc4-c4ccccc43)nn2)coc2ccccc12 [6r, 3-((4-(9-hydroxy-9H-fluoren-9-yl)-1H-1,2,3-triazol-1-yl)methyl)-4H-chromen-4-one]
MIC [1, 3]: 50 µg/mL
melting point: 239 to 240 °C
cytotoxicity (percentage inhibition of cells) [2]: 30.60%

CCCCCCc1cn(Cc2coc3ccccc3c2=O)nn1 [6n, 3-((4-hexyl-1H-1,2,3-triazol-1-yl)methyl)-4H-chromen-4-one]
MIC [1, 3]: 50 µg/mL
melting point: 84 to 85 °C
cytotoxicity (percentage inhibition of cells) [2]: 23.74%

O=c1c(Cn2cc(-c3ccccn3)nn2)coc2ccccc12 [6l, 3-((4-(pyridin-2-yl)-1H-1,2,3-triazol-1-yl)methyl)-4H-chromen-4-one]
MIC [1, 3]: 50 µg/mL
melting point: 175 to 176 °C
cytotoxicity (percentage inhibition of cells) [2]: 30.60%
